Target: Adenosine receptor A3 (Bos taurus)
Experiment: Displacement of [125I]AB-MECA from adenosine A3 receptors in bovine cortical membranes

Ki: 240 nM
SMILES: CNC(=O)[C@H]1O[C@@H](n2cnc3c(NCc4cccc(I)c4)ncnc32)[C@](C)(O)[C@@H]1O [3,4-Dihydroxy-5-[6-(3-iodo-benzylamino)-purin-9-yl]-4-methyl-tetrahydro-furan-2-carboxylic acid methylamide]

Reference: BindingDB's records for doi:10.1021/jm049408n (University of Camerino, 2005)
